Laboratory results as given in publication PMC5507300, “Antibacterial small molecules targeting the conserved TOPRIM domain of DNA gyrase” (PLoS ONE, 2017).
Converted amounts (≈) assume the structure as drawn. Read-outs that look alike come from different tables or passages of the source.

Legend:
Format in all cases: cell-based
[1] = test system: E. coli HS151 (ΔtolC); assay: microbe, parasite or virus in culture; conditions: Escherichia coli
From the text: (§1) E. coli HS151 (ΔtolC) has been described previously. […] E. coli BW25113 and the Keio gene deletion collection based on BW25113 [25] were obtained from Thermo Fisher Scientific (Waltham, MA) and described in [26]. The plasmid-borne FQ resistance determinant, qnrVC3 [27], was kindly provided by D. Hooper (Massachusetts General Hospital). […] MB2884 (E. coli) and CL15245 (K. pneumoniae) are clinical isolates from the Merck & Co., Inc., Kenilworth, NJ, USA, strain collection. S. aureus COL is a methicillin-resistant clinical isolate.
(§2) Compound doubling dilutions were prepared in 100% DMSO (Sigma Aldrich) and 2 μL of each dilution was transferred to a 96-well plate with lid (Thermo Scientific). Inoculum for all MIC testing was prepared using the BBL Prompt Inoculation System (Becton Dickinson, Franklin Lakes, NJ USA) as described by the manufacturer to produce a suspension of cells at approximately 1.5 x 10^8 colony forming units (CFU)/mL [34–36] and a further dilution (1:1000) was made into cation adjusted Mueller-Hinton broth (CAMH broth, Becton-Dickinson). One hundred μL of this inoculum were then transferred to each well of the 96-well plate containing diluted compound (above). Plates were covered and incubated overnight (18 hrs.) at 37°C.

[2] = test system: P. aeruginosa(effluxΔ) MB5890; assay: microbe, parasite or virus in culture; conditions: Pseudomonas aeruginosa
From the text: as §1, §2

[3] = test system: E. coli MB2884 (clinical isolate); assay: Broth microdilution MIC, E. coli MB2884; conditions: Escherichia coli; Table 1; MB2884 E. coli; read-out: MIC
From the text: as §1, §2

[4] = test system: A. baumannii ΔlpxC MB9796; assay: Broth microdilution MIC, A. baumannii MB9796; conditions: Acinetobacter baumannii
From the text: (§3) E. coli HS151 (ΔtolC) has been described previously. Gyrase inhibitor-resistant isolates (GYR101-108) were derived by selection for spontaneous resistance to MRL-770 or MRL-423 (Fig 1) in E. coli HS151 as described below. E. coli BW25113 and the Keio gene deletion collection based on BW25113 [25] were obtained from Thermo Fisher Scientific (Waltham, MA) and described in [26]. The plasmid-borne FQ resistance determinant, qnrVC3 [27], was kindly provided by D. Hooper (Massachusetts General Hospital). MB9796 (A. baumannii) is a derivative of MB9797 (ATCC19606) lacking lipopolysaccharide. The efflux-defective P. aeruginosa strain MB5890 (CB398) is a derivative of MB5919 (PAO1). MB2884 (E. coli) and CL15245 (K. pneumoniae) are clinical isolates from the Merck & Co., Inc., Kenilworth, NJ, USA, strain collection. S. aureus COL is a methicillin-resistant clinical isolate.
as §2

[5] = test system: A. baumanii MB9797 (ATCC19606); assay: Broth microdilution MIC, A. baumannii MB9797; conditions: Acinetobacter baumannii, Table 1, MB9797 A. baumanii, read-out: MIC
From the text: as §3, §2

[6] = test system: P. aeruginosa MB5919 (PAO1); assay: Broth microdilution MIC, P. aeruginosa MB5919; conditions: Pseudomonas aeruginosa, Table 1, MB5919 P. aeruginosa, read-out: MIC
From the text: as §1, §2

[7] = test system: K. pneumoniae CL15245 (clinical isolate); assay: Broth microdilution MIC, K. pneumoniae CL15245; conditions: Klebsiella pneumoniae; Table 1; CL15245 K. pneumoniae; read-out: MIC
From the text: as §1, §2

[8] = test system: S. aureus (MRSA) COL; assay: Broth microdilution MIC, S. aureus COL; conditions: Staphylococcus aureus
From the text: as §3, §2

[9] = test system: E. coli GYR103 GyrB L446Q; assay: microbe, parasite or virus in culture; conditions: Escherichia coli
From the text: as §3, §2
After the agar solidified, 5 μL of a saturated bacterial culture, grown in CAMH broth, were dispensed on the agar surface and allowed to dry at room temperature. […] To select for resistance, a 100 mm petri dish was filled with 25 mL CAMH agar containing 8 μg/mL MRL-770 or 0.5 μg/mL MRL-423 (Fig 1). The cells in 1 mL of an overnight culture of E. coli HS151 (~10^9 CFU/mL) were concentrated by centrifugation and spread onto the surface of an MRL-770 or MRL-423 containing plate. After the surface dried at room temperature the plate was incubated at 37°C overnight. Any colonies that arose were counted and an approximate frequency of resistance was calculated after confirming resistance by restreaking on media containg compound as well as measuring MICs (see Results). Genomic DNA from the parent strain (E. coli HS151) and purified (restreaked) resistant isolates was obtained with a GeneJET genomic DNA purification kit according to the manufacturer’s instructions (Fisher Scientific). Assembled whole genome mutant sequences were then compared to the parent strain and polymorphisms were identified as described.

[10] = test system: E. coli GYR101 GyrB F513L; assay: microbe, parasite or virus in culture; conditions: Escherichia coli
From the text: as §1, §2
(§4) After the agar solidified, 5 μL of a saturated bacterial culture, grown in CAMH broth, were dispensed on the agar surface and allowed to dry at room temperature. […] After the surface dried at room temperature the plate was incubated at 37°C overnight. […] Genomic DNA from the parent strain (E. coli HS151) and purified (restreaked) resistant isolates was obtained with a GeneJET genomic DNA purification kit according to the manufacturer’s instructions (Fisher Scientific). Assembled whole genome mutant sequences were then compared to the parent strain and polymorphisms were identified as described.

[11] = test system: E. coli GYR102 GyrB E466EV; assay: microbe, parasite or virus in culture; conditions: Escherichia coli
From the text: as §1, §2, §4

[12] = test system: E. coli GYR104 GyrB L470I; assay: microbe, parasite or virus in culture; conditions: Escherichia coli
From the text: as §1, §2, §4

[13] = test system: E. coli GYR105 GyrB T469K; assay: microbe, parasite or virus in culture; conditions: Escherichia coli
From the text: as §1, §2, §4

[14] = test system: E. coli GYR106 GyrB F513L/A468V; assay: microbe, parasite or virus in culture; conditions: Escherichia coli
From the text: as §1, §2, §4

[15] = test system: E. coli GYR107 GyrB F513L/L422V; assay: microbe, parasite or virus in culture; conditions: Escherichia coli
From the text: as §1, §2, §4

[16] = test system: E. coli GYR108 GyrB L470I/V467L; assay: microbe, parasite or virus in culture; conditions: Escherichia coli
From the text: as §1, §2, §4

[17] = test system: E. coli CIP101 GyrA D87N; assay: microbe, parasite or virus in culture; conditions: Escherichia coli
Description: as §2

[18] = test system: E. coli HS151 (qnrVC); assay: Broth microdilution MIC, E. coli HS151 (qnrVC); conditions: Escherichia coli
From the text: as §3, §2

[19] = test system: E. coli BW25113 ΔtolC; assay: Broth microdilution MIC, E. coli BW25113 ΔtolC; conditions: Escherichia coli
From the text: as §3, §2
The yacG deletion allele from the Keio collection was amplified by PCR (primers: […] and […]) and moved to BW25113 ΔtolC as described below. The E. coli strain BW25113 ΔtolC containing pKD46 [25] was used to inoculate SOB (Invitrogen)/0.2% w/v arabinose (Sigma Aldrich)/ampicillin (100 μg/mL) and grown overnight at 30°C. The overnight culture was then diluted 1/40 into 20 mL fresh SOB/0.2% w/v arabinose/ampicillin (100 μg/mL) and grown at 30°C while shaking for ~3 hrs until OD600 = 0.5. […]

[20] = test system: E. coli BW25113 ΔtolC/ΔyacG; assay: Broth microdilution MIC, E. coli BW25113 ΔtolC/ΔyacG; conditions: Escherichia coli, BW25113
Description: as §2
The yacG deletion allele from the Keio collection was amplified by PCR (primers: […] and […]) and moved to BW25113 ΔtolC as described below. The E. coli strain BW25113 ΔtolC containing pKD46 [25] was used to inoculate SOB (Invitrogen)/0.2% w/v arabinose (Sigma Aldrich)/ampicillin (100 μg/mL) and grown overnight at 30°C. The overnight culture was then diluted 1/40 into 20 mL fresh SOB/0.2% w/v arabinose/ampicillin (100 μg/mL) and grown at 30°C while shaking for ~3 hrs until OD600 = 0.5. Cells were pelleted by centrifugation at 4000 rpm for 10 min, washed with 40 mL ice cold sterile, distilled H2O, then 3 x 1 mL ice cold 10% glycerol followed by centrifugation at 5000 g for 3 minutes. The pellet was resuspended in 100 μL of 10% glycerol (1/200 of starting culture). For transformation, 5 μL of gel purified PCR product was added to 50 μL cells, mixed, and immediately electroporated in a 0.2 cm gap cuvette at 2.5kV, 25 μF, 200 Ω (BioRad, Hercules, CA USA). Electroporated cells were recovered in 1 mL SOC (Invitrogen)/0.2% arabinose at 37°C for 2 hours with shaking. Cells in amounts of 50 and 950 μL were then plated on LB agar supplemented with kanamycin (25 μg/mL) and incubated overnight at 37°C. Correct gene replacements were verified by PCR.

[21] = Table 2, HS151, GyrB mutation none

| SMILES | MIC ([1]; Table 1, HS151 E. coli ΔtolC) | MIC [1, 21] | MIC [2] | MIC [3] | MIC [4] | MIC [5] | MIC [6] | MIC [7] | MIC ([8]; MRSA) | MIC [9] | MIC [10] | MIC [11] | MIC [12] | MIC [13] | MIC [14] | MIC [15] | MIC [16] | MIC [17] | also measured |
| --- | --- | --- | --- | --- | --- | --- | --- | --- | --- | --- | --- | --- | --- | --- | --- | --- | --- | --- | --- |
| CO[C@@H]1[C@@H](OC(N)=O)[C@@H](O)[C@H](Oc2ccc3c(O)c(NC(=O)c4ccc(O)c(CC=C(C)C)c4)c(=O)oc3c2C)OC1(C)C [novobiocin] | 2 µg/mL (≈ 3.26 µM) | 2 µg/mL (≈ 3.26 µM) | 64 µg/mL (≈ 104 µM) | > 64 µg/mL | < 0.0625 µg/mL | 8 µg/mL (≈ 13.1 µM) | 64 µg/mL (≈ 104 µM) | > 64 µg/mL | 0.125 µg/mL (≈ 0.204 µM) | 2 µg/mL (≈ 3.26 µM) | 2 µg/mL (≈ 3.26 µM) | 1 µg/mL (≈ 1.63 µM) | 2 µg/mL (≈ 3.26 µM) | 2 µg/mL (≈ 3.26 µM) | 2 µg/mL (≈ 3.26 µM) | 2 µg/mL (≈ 3.26 µM) | 2 µg/mL (≈ 3.26 µM) | 2 µg/mL (≈ 3.26 µM) | MIC ([1]; Fig 4 legend, E. coli HS151): 2 µg/mL (≈ 3.26 µM); MIC ([1]; Table 3, HS151): 2 µg/mL (≈ 3.26 µM); MIC [18]: 2 µg/mL (≈ 3.26 µM); MIC [19]: 2 µg/mL (≈ 3.26 µM); MIC [20]: 2 µg/mL (≈ 3.26 µM) |
| CO[C@H]1/C=C/O[C@@]2(C)Oc3c(C)c(O)c4c(O)c(c(/C=N/N5CCN(C)CC5)c(O)c4c3C2=O)NC(=O)/C(C)=C\C=C\[C@H](C)[C@H](O)[C@@H](C)[C@@H](O)[C@@H](C)[C@H](OC(C)=O)[C@@H]1C [rifampicin] |  |  | 32 µg/mL (≈ 38.9 µM) | 8 µg/mL (≈ 9.72 µM) | < 0.0625 µg/mL | 2 µg/mL (≈ 2.43 µM) | 32 µg/mL (≈ 38.9 µM) | 32 µg/mL (≈ 38.9 µM) | < 0.0625 µg/mL |  |  |  |  |  |  |  |  | 8 µg/mL (≈ 9.72 µM) |  |
| CN(C)[C@@H]1C(O)=C(C(N)=O)C(=O)[C@@]2(O)C(O)=C3C(=O)c4c(O)cccc4[C@@](C)(O)[C@H]3C[C@@H]12 [tetracycline] | 0.5 µg/mL (≈ 1.13 µM) | 0.5 µg/mL (≈ 1.13 µM) | 0.25 µg/mL (≈ 0.563 µM) |  | 0.25 µg/mL (≈ 0.563 µM) | 2 µg/mL (≈ 4.5 µM) | 32 µg/mL (≈ 72 µM) | 2 µg/mL (≈ 4.5 µM) |  | 0.5 µg/mL (≈ 1.13 µM) | 0.5 µg/mL (≈ 1.13 µM) | 0.5 µg/mL (≈ 1.13 µM) | 0.5 µg/mL (≈ 1.13 µM) | 0.5 µg/mL (≈ 1.13 µM) | 0.5 µg/mL (≈ 1.13 µM) | 0.5 µg/mL (≈ 1.13 µM) | 0.5 µg/mL (≈ 1.13 µM) | 0.5 µg/mL (≈ 1.13 µM) | MIC ([8]; Table 1, COL S. aureus (MRSA), read-out: MIC): > 64 µg/mL |
